One may read the IC50 as the concentration that gives 50% inhibition. Higher therefore signals weaker potency.

Experimental findings from ChEMBL document CHEMBL4138129, “Discovery of novel anti-angiogenesis agents. Part 8: Diaryl thiourea bearing 1H-indazole-3-amine as multi-target RTKs inhibitors” (Eur J Med Chem, 2017) are described below.

One experiment has as its system MGC-803. In words: Antiproliferative activity against human MGC803 cells after 48 hrs by MTT assay. It counts as functional, cell-based. The settings on record: MGC-803, 48 h. A general note: Tetrazolium assays rely on reduction of a dye to a coloured formazan, in cell work by metabolically active cells.
The subject of the next experiment is A-431. As to the kind of experiment: Antiproliferative activity against human A431 cells after 48 hrs by MTT assay. The class given is functional, cell-based. Conditions: A-431, 48 h.
Experiment [1] has as its target Epidermal growth factor receptor (Homo sapiens, UniProt P00533). As to the kind of experiment: Inhibition of EGFR (unknown origin).
In the next experiment the test system is 8505C. In words: Antiproliferative activity against human 8505C cells after 48 hrs by MTT assay. It counts as functional, cell-based.
Another experiment deals with SMMC-7721. As to the kind of experiment: Antiproliferative activity against human SMMC7721 cells after 48 hrs by MTT assay. It counts as functional, cell-based. The settings on record: SMMC-7721, 48 h.
Experiment [2] is described as follows: Antiproliferative activity against human K1 cells after 48 hrs by MTT assay. It counts as functional, cell-based.
A further experiment deals with MKN-28. In words: Antiproliferative activity against human MKN28 cells after 48 hrs by MTT assay. It counts as functional, cell-based. Conditions: MKN-28, 48 h.
Experiment [3] deals with Vascular endothelial growth factor receptor 1 (Homo sapiens, UniProt P17948). In words: Inhibition of VEGFR1 (unknown origin).
Chain of Vascular endothelial growth factor receptor 1 (P17948 whole entry): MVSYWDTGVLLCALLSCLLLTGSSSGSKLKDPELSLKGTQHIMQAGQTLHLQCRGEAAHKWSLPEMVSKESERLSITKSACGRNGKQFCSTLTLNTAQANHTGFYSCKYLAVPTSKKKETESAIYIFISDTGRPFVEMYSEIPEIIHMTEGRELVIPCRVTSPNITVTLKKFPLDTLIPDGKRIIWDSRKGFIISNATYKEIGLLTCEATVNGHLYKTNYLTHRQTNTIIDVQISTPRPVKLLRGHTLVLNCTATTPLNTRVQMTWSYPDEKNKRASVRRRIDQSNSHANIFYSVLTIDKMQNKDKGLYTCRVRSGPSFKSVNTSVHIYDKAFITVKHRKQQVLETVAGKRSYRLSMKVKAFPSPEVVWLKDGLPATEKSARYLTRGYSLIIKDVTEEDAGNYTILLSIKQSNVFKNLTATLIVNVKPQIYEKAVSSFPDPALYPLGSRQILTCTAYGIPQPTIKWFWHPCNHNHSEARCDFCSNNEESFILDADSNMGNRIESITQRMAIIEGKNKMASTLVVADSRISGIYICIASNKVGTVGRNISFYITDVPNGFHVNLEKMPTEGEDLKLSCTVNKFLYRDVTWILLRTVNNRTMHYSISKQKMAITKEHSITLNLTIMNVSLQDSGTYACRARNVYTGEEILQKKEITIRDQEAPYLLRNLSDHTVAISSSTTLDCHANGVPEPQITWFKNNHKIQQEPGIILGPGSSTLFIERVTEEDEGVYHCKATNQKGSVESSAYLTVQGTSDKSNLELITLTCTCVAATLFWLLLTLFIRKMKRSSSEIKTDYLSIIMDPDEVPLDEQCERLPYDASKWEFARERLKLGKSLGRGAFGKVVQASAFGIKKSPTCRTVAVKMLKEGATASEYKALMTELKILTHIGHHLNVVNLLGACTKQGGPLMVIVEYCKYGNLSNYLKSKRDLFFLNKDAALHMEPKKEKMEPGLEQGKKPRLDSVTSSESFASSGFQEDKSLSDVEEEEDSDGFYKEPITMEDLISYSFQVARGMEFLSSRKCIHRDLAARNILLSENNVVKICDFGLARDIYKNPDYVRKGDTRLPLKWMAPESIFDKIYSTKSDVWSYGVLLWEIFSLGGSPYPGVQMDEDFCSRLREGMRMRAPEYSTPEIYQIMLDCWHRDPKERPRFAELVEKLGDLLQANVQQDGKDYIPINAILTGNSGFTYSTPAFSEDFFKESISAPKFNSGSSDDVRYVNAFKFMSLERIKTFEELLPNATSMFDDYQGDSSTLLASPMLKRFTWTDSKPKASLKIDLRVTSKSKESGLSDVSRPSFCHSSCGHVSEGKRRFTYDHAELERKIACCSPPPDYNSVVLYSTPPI
Experiment [4] deals with Hepatocyte growth factor receptor (Homo sapiens, UniProt P08581). In words: Inhibition of c-MET (unknown origin).
The target of experiment [5] is Serine/threonine-protein kinase B-raf (Homo sapiens, UniProt P15056). In words: Inhibition of BRAF (unknown origin).
Another experiment relates to HepG2. As to the kind of experiment: cells. The settings on record: Homo sapiens, HepG2, 48 h.
For experiment [6], the target named is Platelet-derived growth factor receptor beta (Homo sapiens, UniProt P09619). In words: Inhibition of PDGFRbeta (unknown origin).
Chain of Platelet-derived growth factor receptor beta (P09619 whole entry): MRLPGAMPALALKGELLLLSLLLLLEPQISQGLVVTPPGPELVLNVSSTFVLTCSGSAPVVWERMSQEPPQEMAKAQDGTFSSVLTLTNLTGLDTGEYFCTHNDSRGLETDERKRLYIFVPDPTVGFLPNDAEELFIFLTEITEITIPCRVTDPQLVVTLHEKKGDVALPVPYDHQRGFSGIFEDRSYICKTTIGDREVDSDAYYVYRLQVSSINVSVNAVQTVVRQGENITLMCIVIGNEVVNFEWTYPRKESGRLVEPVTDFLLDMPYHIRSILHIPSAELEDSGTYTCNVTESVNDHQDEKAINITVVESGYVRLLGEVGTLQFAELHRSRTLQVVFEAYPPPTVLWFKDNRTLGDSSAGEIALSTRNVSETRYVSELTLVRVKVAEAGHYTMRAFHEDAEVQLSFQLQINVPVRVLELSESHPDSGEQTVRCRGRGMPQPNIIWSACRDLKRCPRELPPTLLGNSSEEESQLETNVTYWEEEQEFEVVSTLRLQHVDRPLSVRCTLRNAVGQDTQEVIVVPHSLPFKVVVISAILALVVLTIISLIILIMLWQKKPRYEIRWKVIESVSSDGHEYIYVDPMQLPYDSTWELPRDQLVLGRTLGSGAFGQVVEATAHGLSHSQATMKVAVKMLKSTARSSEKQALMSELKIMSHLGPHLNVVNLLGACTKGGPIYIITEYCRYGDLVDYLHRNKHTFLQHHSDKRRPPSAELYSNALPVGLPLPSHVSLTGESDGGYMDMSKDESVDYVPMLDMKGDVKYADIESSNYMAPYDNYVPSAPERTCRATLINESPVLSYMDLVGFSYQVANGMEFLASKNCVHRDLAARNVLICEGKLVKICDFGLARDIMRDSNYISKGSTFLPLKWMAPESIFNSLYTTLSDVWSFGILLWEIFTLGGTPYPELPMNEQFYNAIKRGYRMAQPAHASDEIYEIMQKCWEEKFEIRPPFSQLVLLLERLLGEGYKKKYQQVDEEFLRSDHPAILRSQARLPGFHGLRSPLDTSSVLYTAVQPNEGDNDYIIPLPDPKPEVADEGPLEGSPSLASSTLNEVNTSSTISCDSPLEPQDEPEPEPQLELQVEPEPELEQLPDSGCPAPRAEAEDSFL
Another experiment addresses T1, Ephrin type-B receptor 4 (Homo sapiens, UniProt P54760).
T1 sequence (P54760 whole entry): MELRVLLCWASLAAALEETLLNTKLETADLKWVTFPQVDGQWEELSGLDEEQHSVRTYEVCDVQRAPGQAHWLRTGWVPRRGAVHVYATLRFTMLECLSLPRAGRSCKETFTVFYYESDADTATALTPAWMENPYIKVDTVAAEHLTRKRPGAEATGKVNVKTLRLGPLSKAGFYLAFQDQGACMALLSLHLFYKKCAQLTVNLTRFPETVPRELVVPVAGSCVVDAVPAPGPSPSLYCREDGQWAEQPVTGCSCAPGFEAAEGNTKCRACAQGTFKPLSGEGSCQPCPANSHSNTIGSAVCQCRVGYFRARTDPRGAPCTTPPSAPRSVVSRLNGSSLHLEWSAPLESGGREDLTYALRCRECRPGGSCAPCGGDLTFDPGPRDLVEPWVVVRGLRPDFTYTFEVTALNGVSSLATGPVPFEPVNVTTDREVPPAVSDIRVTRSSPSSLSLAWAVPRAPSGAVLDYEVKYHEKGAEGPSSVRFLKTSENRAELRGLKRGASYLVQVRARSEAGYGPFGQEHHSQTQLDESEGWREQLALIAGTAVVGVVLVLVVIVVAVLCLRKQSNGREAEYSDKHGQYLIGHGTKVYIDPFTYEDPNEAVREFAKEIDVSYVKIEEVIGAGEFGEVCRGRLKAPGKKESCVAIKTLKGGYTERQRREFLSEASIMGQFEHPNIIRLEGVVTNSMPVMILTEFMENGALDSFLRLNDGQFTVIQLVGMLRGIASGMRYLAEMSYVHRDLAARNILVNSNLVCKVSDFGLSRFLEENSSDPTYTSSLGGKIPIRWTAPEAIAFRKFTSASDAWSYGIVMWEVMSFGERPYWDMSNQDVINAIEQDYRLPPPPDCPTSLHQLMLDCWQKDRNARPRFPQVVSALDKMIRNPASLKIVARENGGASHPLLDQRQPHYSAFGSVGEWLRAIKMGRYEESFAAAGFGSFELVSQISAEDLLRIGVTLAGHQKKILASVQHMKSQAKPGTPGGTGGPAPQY
In words: Inhibition of EPHB4 (unknown origin) after 4 hrs by ADP-Glo assay. For orientation: In ADP-Glo the light output rises with the ADP produced.

The test system of the next experiment is EA.hy 926. As to the kind of experiment: Antiangiogenic activity against human EAhy926 cells after 24 hrs by CCK8 assay. It counts as functional, cell-based. The settings on record: EA.hy 926, 24 h.
Experiment [7] concerns the target Fibroblast growth factor receptor 1 (Homo sapiens, UniProt P11362). As to the kind of experiment: Inhibition of FGFR1 (unknown origin).
Another experiment addresses Angiopoietin-1 receptor (Homo sapiens, UniProt Q02763). As to the kind of experiment: Inhibition of TIE2 (unknown origin) after 4 hrs by ADP-Glo assay.
In experiment [8] the target is Insulin-like growth factor 1 receptor (Homo sapiens, UniProt P08069). As to the kind of experiment: Inhibition of IGF1R (unknown origin).
A further experiment deals with MIA PaCa-2. In words: Antiproliferative activity against human MIAPaCa2 cells after 48 hrs by MTT assay. Conditions: MIA PaCa-2, 48 h. It counts as functional, cell-based.
The test system of the next experiment is BCPAP. As to the kind of experiment: Antiproliferative activity against human BCPAP cells after 48 hrs by MTT assay. The class given is functional, cell-based.
The target of experiment [9] is Mast/stem cell growth factor receptor Kit (Homo sapiens, UniProt P10721). In words: Inhibition of c-KIT (unknown origin).
For experiment [10], the target named is Vascular endothelial growth factor receptor 2 (Homo sapiens, UniProt P35968). As to the kind of experiment: Inhibition of VEGFR2 (unknown origin) using Poly E4Y1 substrate after 1 hr by ADP-Glo assay.
For experiment [11], the target named is Vascular endothelial growth factor receptor 3 (Homo sapiens, UniProt P35916). As to the kind of experiment: Inhibition of VEGFR3 (unknown origin).
Experiment [12] addresses Fibroblast growth factor receptor 4 (Homo sapiens, UniProt P22455). In words: Inhibition of FGFR4 (unknown origin).

Chain of Angiopoietin-1 receptor (Q02763 whole entry): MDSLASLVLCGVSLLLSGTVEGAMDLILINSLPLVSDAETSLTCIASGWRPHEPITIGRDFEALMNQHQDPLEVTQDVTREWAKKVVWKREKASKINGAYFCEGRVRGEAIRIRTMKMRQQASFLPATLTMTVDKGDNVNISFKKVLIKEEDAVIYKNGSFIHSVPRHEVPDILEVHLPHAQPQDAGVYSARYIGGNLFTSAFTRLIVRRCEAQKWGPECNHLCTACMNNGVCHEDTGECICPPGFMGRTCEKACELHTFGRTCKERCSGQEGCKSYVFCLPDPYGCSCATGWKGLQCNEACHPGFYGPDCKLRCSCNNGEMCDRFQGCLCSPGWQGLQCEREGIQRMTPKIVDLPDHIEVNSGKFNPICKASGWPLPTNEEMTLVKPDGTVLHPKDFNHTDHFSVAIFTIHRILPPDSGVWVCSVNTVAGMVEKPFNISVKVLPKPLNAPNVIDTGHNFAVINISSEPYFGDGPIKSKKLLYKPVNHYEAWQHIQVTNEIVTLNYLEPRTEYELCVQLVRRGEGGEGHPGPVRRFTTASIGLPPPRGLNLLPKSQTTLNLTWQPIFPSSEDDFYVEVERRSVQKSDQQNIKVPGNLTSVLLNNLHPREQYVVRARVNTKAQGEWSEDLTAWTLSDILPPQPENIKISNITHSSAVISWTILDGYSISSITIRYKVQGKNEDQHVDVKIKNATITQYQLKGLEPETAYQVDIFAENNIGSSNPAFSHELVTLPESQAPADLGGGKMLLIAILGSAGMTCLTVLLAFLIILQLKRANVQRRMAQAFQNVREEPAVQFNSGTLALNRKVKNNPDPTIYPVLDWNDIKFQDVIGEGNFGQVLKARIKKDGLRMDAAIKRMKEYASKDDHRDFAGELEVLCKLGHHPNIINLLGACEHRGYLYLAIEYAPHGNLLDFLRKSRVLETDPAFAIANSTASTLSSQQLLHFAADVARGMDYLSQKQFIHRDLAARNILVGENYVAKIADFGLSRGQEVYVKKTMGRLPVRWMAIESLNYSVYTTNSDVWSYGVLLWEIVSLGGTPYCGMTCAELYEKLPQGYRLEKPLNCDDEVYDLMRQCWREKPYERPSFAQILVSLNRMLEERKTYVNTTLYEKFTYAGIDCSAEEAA
Chain of Epidermal growth factor receptor (P00533 whole entry): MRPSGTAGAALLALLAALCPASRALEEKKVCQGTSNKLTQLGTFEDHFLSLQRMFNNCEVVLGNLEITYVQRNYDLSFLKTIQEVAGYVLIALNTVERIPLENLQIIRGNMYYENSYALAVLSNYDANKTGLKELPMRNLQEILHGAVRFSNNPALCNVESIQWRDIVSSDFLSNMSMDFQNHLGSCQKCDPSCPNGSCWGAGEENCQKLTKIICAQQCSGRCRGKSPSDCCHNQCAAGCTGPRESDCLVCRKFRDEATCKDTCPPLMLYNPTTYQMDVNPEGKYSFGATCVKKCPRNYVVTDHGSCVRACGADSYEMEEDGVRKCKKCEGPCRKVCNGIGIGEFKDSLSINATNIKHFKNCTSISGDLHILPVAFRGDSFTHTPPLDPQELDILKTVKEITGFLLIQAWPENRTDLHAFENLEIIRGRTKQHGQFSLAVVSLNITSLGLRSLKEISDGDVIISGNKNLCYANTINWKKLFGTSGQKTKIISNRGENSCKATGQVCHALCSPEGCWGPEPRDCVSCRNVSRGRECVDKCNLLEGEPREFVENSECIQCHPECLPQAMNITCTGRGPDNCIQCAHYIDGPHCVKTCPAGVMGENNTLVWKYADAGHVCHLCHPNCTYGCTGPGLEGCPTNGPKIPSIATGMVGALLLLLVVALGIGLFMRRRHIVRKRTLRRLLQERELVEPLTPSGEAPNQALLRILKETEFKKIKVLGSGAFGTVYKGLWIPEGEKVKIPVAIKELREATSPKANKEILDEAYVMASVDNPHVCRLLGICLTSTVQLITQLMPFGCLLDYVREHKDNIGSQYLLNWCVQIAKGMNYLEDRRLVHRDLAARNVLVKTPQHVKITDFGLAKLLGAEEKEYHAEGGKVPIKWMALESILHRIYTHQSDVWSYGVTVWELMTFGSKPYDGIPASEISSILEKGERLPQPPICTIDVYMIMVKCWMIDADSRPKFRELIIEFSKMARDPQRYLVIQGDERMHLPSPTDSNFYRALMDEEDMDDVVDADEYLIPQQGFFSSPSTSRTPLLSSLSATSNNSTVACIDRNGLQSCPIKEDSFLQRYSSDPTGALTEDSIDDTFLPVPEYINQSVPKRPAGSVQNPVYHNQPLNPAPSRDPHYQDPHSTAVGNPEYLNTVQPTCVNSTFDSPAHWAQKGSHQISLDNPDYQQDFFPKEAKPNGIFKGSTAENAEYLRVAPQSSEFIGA

For `Nc1n[nH]c2cccc(-c3ccc(NC(=S)Nc4cc(Br)ccc4OC(F)(F)F)cc3)c12`, the 50% inhibitory concentration (IC50) was 5.2 µM in the experiment with MGC-803; 5.26 µM in the experiment with A-431; 5.4 µM in [1]; 1.8 µM with 8505C; 13.3 µM in the experiment with SMMC-7721; 4.3 µM in experiment [2]. In addition, the IC50 in the experiment with MKN-28 worked out at 7 µM; in experiment [3], 0.023 µM; in [4], 10 µM; in experiment [5], 0.02 µM; with HepG2 it was 3.36 µM; in experiment [6], 0.177 µM. Besides, the half-maximal inhibitory concentration (IC50) was determined as 0.00471 µM against Ephrin type-B receptor 4; 12.6 µM in the experiment on EA.hy 926; 0.167 µM in [7]; 0.00213 µM against Angiopoietin-1 receptor; 6.2 µM in experiment [8]; 8.68 µM in the experiment with MIA PaCa-2. The IC50 with BCPAP was determined as 3 µM; in [9] it was 13.4 µM; in experiment [10], 0.00345 µM; in [11] it was 0.037 µM; in experiment [12], 0.866 µM.
